One may read the Papp A→B as how fast a substance crosses the layer from the apical side. As a reminder, the Papp B→A is the apparent permeability from the basolateral to the apical side of a cell layer. The efflux ratio is a quotient of directional permeabilities that is used to spot active efflux. By AUC(0-inf) is commonly meant total exposure, with the tail of the curve extrapolated. In general, AUC(0-t) refers to the area under the concentration-time curve up to a stated or last time point. Broadly, the Cmax is the maximum level reached in the sampled fluid or tissue. A word on the Tmax: it is the time at which the peak concentration occurs. Broadly, the half-life is the time in which the quantity being followed falls by half.

This is an account of results in patent US10947196B2, “Beta adrenergic agonist and methods of using the same” (CURASEN THERAPEUTICS, INC., priority 2019, dated 2021).

Structures are written as SMILES. Where two headings read alike, the source gives them in different places.

A short description of series [1]: MDCK-MDR1 permeability assay. It counts as in vitro ADME. To be noted: dog, MDCK-MDR1, pH 7.4, 5 μM, 2 hours; for Papp A→B at 2 h, 5 μM: apical to basolateral; for Papp B→A at 2 h, 5 μM: basolateral to apical. The procedure: (§1) Preparation of MDCK-MDR1 Cells. Cell culture medium of was added to each well of the Transwell insert (50 μL) and reservoir (25 mL). The HTS transwell plates were then incubated at 37° C., 5% CO2 for 1 hour before cell seeding. MDCK-MDR1 cells were diluted to 1.56×10^6 cells/mL with culture medium and 50 μL of cell suspension were dispensed into the filter well of the 96-well HTS Transwell plate. Cells were cultivated for 4-8 days in a cell culture incubator at 37° C., 5% CO2, 95% relative humidity. Cell culture medium was replaced every other day, beginning no later than 24 hours after initial plating.
(§2) Preparation of Stock Solutions. 10 mM stock solutions of test compounds were prepared in DMSO. The stock solutions of positive controls were prepared in DMSO at the concentration of 10 mM. Metoprolol, prazosin and imatinib were used as control compounds in this assay.
(§3) Assessment of Cell Monolayer Integrity. Medium was removed from the reservoir and each Transwell insert and replaced with prewarmed fresh culture medium. Transepithelial electrical resistance (TEER) across the monolayer was measured using Millicell Epithelial Volt-Ohm measuring system (Millipore, USA). The Plate was returned to the incubator once the measurement was done. TEER value should be greater than 42 ohm·cm2, which indicates the well-qualified MDCK-MDR1 monolayer. The TEER value was calculated according to the following equation: TEER measurement (ohms)×Area of membrane(cm^2)=TEER value(ohm·cm^2)
(§4) Assay Procedures. The MDCK-MDR1 plate was removed from the incubator and washed twice with pre-warmed HBSS (10 mM HEPES, pH 7.4), and then incubated at 37° C. for 30 minutes. The stock solutions of test compounds and controls were diluted in DMSO to get 1 mM solutions and then diluted with HBSS (10 mM HEPES, pH 7.4) to get 5 μM working solutions. The final concentration of DMSO in the incubation system was 0.5%.
(§5) To determine the rate of drug transport in the apical to basolateral direction, 125 μL of 5 μM working solution of test compound and control compound were added to the Transwell insert (apical compartment), and transfer 50 μL sample (DO sample) immediately from the apical compartment to a new 96-well plate. The wells in the receiver plate (basolateral compartment) were filled with 235 μL of HBSS (10 mM HEPES, pH 7.4). The assay was performed in duplicate.
(§6) To determine the rate of drug transport in the basolateral to apical direction, 285 μL of 5 μM working solution of test compound and control compound were to the receiver plate wells (basolateral compartment), and transfer 50 μL sample (DO sample) immediately from the basolateral compartment to a new 96-well plate. The wells in the Transwell insert (apical compartment) were filled with 75 μL of HBSS (10 mM HEPES, pH 7.4). The plates were incubated at 37° C. for 2 hours. At the end of the incubation, 50 μL samples from donor sides (apical compartment for Ap→Bl flux, and basolateral compartment for Bl→Ap) and receiver sides (basolateral compartment for Ap→Bl flux, and apical compartment for Bl→Ap) were transferred to wells of a new 96-well plate, followed by the addition of 4 volume of cold methanol containing appropriate internal standards (IS). Samples were Vortexed for 5 minutes and then centrifuged at 3,220 g for 40 minutes. An aliquot of 100 μL of the supernatant was mixed with an appropriate volume of ultra-pure water before LC-MS/MS analysis.
(§7) To determine the Lucifer Yellow leakage after 2 hour transport period, stock solution of Lucifer yellow was prepared in DMSO and diluted with HBSS (10 mM HEPES, pH 7.4) to reach a final concentration of 100 μM. Lucifer yellow solution (100 μL) was added to each Transwell insert (apical compartment), followed by filling the wells in the receiver plate (basolateral compartment) with 300 μL of HBSS (10 mM HEPES, pH 7.4). […]

Series [2] deals with MDR1. Put plainly: MDCK-MDR1 permeability assay. The following applies: dog, MDCK-MDR1, pH 7.4; Papp(B-A)/Papp(A-B). In kind it is in vitro ADME. The procedure:
as §1, §2, §3, §4, §5, §6, §7

The nature of series [3]: Mouse pharmacokinetic studies. To be noted: PO 5 mg/kg; for AUC(0-inf) / AUC(0-t) / Cmax / Tmax / half-life / MRT inf: male, C57BL/6J; for MRT inf: read-out: MRTInf—obs. It counts as in vivo, male C57BL/6J mice. Set-up: AUClast/D: unit not given here. The procedure: The rat pharmacokinetics studies of exemplary compounds 03-3, 03-5, and 03-115 were conducted with male SD rats. These rats were typically about 6-8 weeks old, weighing 200 g to 300 g. Animals were fasted overnight and free access to food 4 hours after dosing. A required volume of vehicle was added to reach the target concentration of the test article and vehicle component to prepare for the dosing. The dosing vehicle was PEG400 or 30% PEG400 in saline for IV, or 0.5% methylcellulose in water for PO. For IV dosing, the animals were administered intravenously via tail vein. For PO dosing, the animals were administered via oral gavage. After dosing, blood sample was collected (˜0.2 mL per time point) through jugular vein or heart puncture. Blood of each sample was transferred into plastic micro centrifuge tubes containing EDTA-K2. Collection tubes with blood samples and anticoagulant were inverted several times for proper mixing of the tube contents and then placed on wet ice. The blood samples were centrifuged at 2000 g for 5 minutes at 4° C. to obtain plasma which was stored in a freezer at −75±15° C. prior to analysis. Samples were analyzed using LC-MS/MS. WinNonlin were used for pharmacokinetic calculations.
Mouse pharmacokinetics studies of exemplar compounds 03-3 and 03-5 were conducted substantially similarly to the rat pharmacokinetic studies, instead using male C57BL/6J mice. These mice were typically about 6-8 weeks old, weighing 20 g to 30 g. Animals were free access to food before dosing. Sample amount was ˜0.03 mL per time point and sample site was dorsal metatarsal or heart puncture.

In the case of `CC(C)(C)NC[C@H](O)c1cccc(C#N)n1` [Compound 03-5, (S)-6-(2-(tert-butylamino)-1-hydroxyethyl)picolinonitrile], in series [1], the Papp A→B at 2 h, 5 μM was 15.2 ×10⁻⁶ cm/s and the Papp B→A at 2 h, 5 μM amounted to 16.2 ×10⁻⁶ cm/s. In addition, in series [2], the efflux ratio at 2 h, 5 μM was 1.06. Moreover, in series [3], the AUClast/D turned out to be 1214, the “AUC—% Extrap—obs” value stood at 0.0845% and the F was 163%. Besides, in series [3] (plasma), the AUC(0-inf) turned out to be 6080 ng·h/mL, the AUC(0-t) was determined as 6070 ng·h/mL, the highest level (Cmax) was 1940 ng/mL and the Tmax was determined as 55 min. For the same molecule, in series [3] (plasma), the half-life was 151 min and the MRT inf was 2.43 h.

Take `CC(C)(C)NC[C@H](O)c1cccc(C(F)(F)F)n1` [Compound 03-3]: in series [1], the Papp A→B at 2 h, 5 μM was found to be 25.3 ×10⁻⁶ cm/s and the Papp B→A at 2 h, 5 μM came to 19.8 ×10⁻⁶ cm/s. The efflux ratio at 2 h, 5 μM in series [2] was found to be 0.78. In series [3], the AUClast/D is 774, the “AUC—% Extrap—obs” value stood at 0.958% and the F was determined as 85.1%. In addition, in series [3] (plasma), the AUC(0-inf) came to 3910 ng·h/mL, the AUC(0-t) was 3870 ng·h/mL, the highest concentration (Cmax) amounted to 1020 ng/mL and the Tmax stood at 15 min. In series [3] (plasma), the half-life was 227 min and the MRT inf worked out at 4.08 h.

For the molecule `Cc1ncccc1[C@@H](O)CNC(C)(C)C` [Compound 03-115], in series [1], the Papp A→B at 2 h, 5 μM came to 6.96 ×10⁻⁶ cm/s and the Papp B→A at 2 h, 5 μM stood at 11 ×10⁻⁶ cm/s. Moreover, in series [2], the efflux ratio at 2 h, 5 μM came out at 1.58. In series [3], this molecule registered an F of 112%. In series [3] (in vivo), the AUC(0-inf) amounted to 3020 ng·h/mL, the peak level (Cmax) was 1750 ng/mL, the Tmax turned out to be 30 min and the MRT inf was 1.8 h.
